Data on 27 compounds can be found in patent publication US9206167B2, “Piperazine-substituted benzothiophenes for treatment of mental disorders” (Otsuka Pharmaceutical Co., Ltd., priority 2005, dated 2015).

One assay has as its target Dopamine D2 receptor (Rattus norvegicus (Rat), UniProt P61169). Kind of assay: Dopamine D2 receptor binding assay ([3H]-raclopride, rat corpus striatum membrane). The conditions noted are these: Ki from IC50 by Cheng-Prussoff formula. The protocol:
Pharmacological Test 1 1) Dopamine D2 Receptor Binding Assay
Wistar male rats were decapitated, the brain was retrieved immediately and corpus striatum was taken out. It was homogenized in 50 mM tris(hydroxymethyl)aminomethane (Tris)-hydrochloric acid buffer (pH 7.4) of a volume 50 times of the weight of the tissue using a homogenizer with a high-speed rotating blade, and centrifuged at 4° C., 48,000×g for 10 minutes. The obtained precipitate was suspended again in the above-described buffer of a volume 50 times of the weight of the tissue and after incubated at 37° C. for 10 minutes, centrifuged in the above-described condition. The obtained precipitate was suspended in 50 mM (Tris)-hydrochloric acid buffer (containing 120 mM NaCl, 5 mM KCl, 2 mM CaCl2, 1 mM MgCl2, pH 7.4) of a volume 25 times of the weight of the tissue and preserved by freezing at −85° C. till it was used for binding assay as a membrane specimen.
The binding assay was performed using 40 μl of the membrane specimen, 20 μl of [^3H]-raclopride (final concentration 1 to 2 nM), 20 μl of a test drug and 50 mM Tris-hydrochloric acid buffer (containing 120 mM NaCl, 5 mM KCl, 2 mM CaCl2, 1 mM MgCl2, pH 7.4) so that the total amount was 200 μl (final dimethylsulfoxide concentration 1%). The reaction was performed at room temperature for 1 hour and terminated by conducting suction filtration with a cell harvester on a glass fiber filter plate. The filter plate made of glass fiber was washed with 50 mM Tris-hydrochloric acid buffer (pH 7.4), and after dried, a microplate liquid scintillation cocktail was added and the radioactivity was measured with a microplate scintillation counter. Radioactivity in the presence of 10 μM (+)-butaclamol hydrochloride was assumed as nonspecific binding.
(§1) IC50 value was calculated from concentration-dependent reaction using a non-linear analysis program. Ki value was calculated from IC50 value using Cheng-Prussoff formula.

Assay [1] has as its target Serotonin 5-HT2A receptor (Rattus norvegicus (Rat), UniProt P14842). Kind of assay: Serotonin 5-HT2A receptor binding assay ([3H]-Ketanserin, rat frontal cortex membrane). The conditions noted are these: Ki from IC50 by Cheng-Prussoff formula. The protocol:
2) Serotonin 5-HT2A Receptor Binding Assay
The assay was performed according to the method by Leysen J E et al. (Leysen J E, Niemegeers C J E, Van Nueten J M and Laduron P M. [3H] Ketanserin (R 41 468), a selective 3H-ligand for serotonin 2 receptor binding sites. Mol. Pharmacol., 1982, 21: 301-314).
Wistar male rats were decapitated, the brain was retrieved immediately and frontal cortex was taken out. It was homogenized in 0.25 M sucrose of a volume 10 times of the weight of the tissue using a Teflon glass homogenizer, and centrifuged at 4° C., 1,000×g for 10 minutes. The obtained supernatant was transferred to another centrifuge tube and suspended in 0.25 M sucrose of a volume 5 times of the weight of the tissue and the precipitate was centrifuged in the above-described condition. The obtained supernatant was combined with the supernatant obtained above and adjusted to a volume 40 times of the weight of the tissue with 50 mM Tris-hydrochloric acid buffer (pH 7.4), and centrifuged at 4° C., 35,000×g for 10 minutes. The obtained precipitate was suspended again in the above-described buffer of a volume 40 times of the weight of the tissue and centrifuged in the above-described condition. The obtained precipitate was suspended in the above-described buffer of a volume 20 times of the weight of the tissue and preserved by freezing at −85° C. till it was used for binding assay as a membrane specimen.
The binding assay was performed using 40 μl of the membrane specimen, 20 μl of [^3H]-Ketanserin (final concentration 1 to 3 nM), 20 μl of a test drug and 50 mM Tris-hydrochloric acid buffer (pH 7.4) so that the total amount was 200 μl (final dimethylsulfoxide concentration 1%). The reaction was performed at 37° C. for 20 minutes and terminated by conducting suction filtration with a cell harvester on a glass fiber filter plate.
The filter plate made of glass fiber was washed with 50 mM Tris-hydrochloric acid buffer (pH 7.4), and after dried, a microplate liquid scintillation cocktail was added and the radioactivity was measured with a microplate scintillation counter. Radioactivity in the presence of 10 μM spiperone was assumed as nonspecific binding.
as §1

The target in the next assay is Serotonin (5-HT) uptake (Rattus norvegicus (Rat), UniProt P31652). Kind of assay: Serotonin (5-HT) uptake inhibitory activity by rat brain synaptosome. It is filed as biochemical. The conditions noted are these: test compound 300 nM, rat frontal cortex synaptosome; read-out: Serotonin uptake inhibitory ratio (%) (300 nM). The protocol: Measurement of Serotonin (5-HT) Uptake Inhibitory Activity of a Test Compound by Rat Brain Synaptosome
Sequence of Serotonin (5-HT) uptake (P31652 whole entry): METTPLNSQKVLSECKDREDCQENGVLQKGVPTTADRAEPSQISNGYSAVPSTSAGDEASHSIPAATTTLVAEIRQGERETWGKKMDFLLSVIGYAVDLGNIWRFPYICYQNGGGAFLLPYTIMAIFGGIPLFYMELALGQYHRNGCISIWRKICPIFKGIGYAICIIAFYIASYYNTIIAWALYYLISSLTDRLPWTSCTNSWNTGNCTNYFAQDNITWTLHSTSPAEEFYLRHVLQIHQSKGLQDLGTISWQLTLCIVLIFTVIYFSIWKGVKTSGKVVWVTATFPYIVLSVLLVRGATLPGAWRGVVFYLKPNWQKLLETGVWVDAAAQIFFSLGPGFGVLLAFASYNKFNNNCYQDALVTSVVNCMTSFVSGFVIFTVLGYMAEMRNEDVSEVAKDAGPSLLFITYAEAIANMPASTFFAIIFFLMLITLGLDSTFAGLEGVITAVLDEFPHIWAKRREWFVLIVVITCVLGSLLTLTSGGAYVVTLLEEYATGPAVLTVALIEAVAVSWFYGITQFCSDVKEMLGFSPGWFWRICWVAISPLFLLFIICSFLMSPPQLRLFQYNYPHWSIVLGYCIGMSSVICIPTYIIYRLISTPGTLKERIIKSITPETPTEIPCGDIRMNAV
Wistar male rats were decapitated, the brain was retrieved and frontal cortex was dissected out, and it was homogenized in 0.32 M sucrose solution of a weight 20 times of the weight of the tissue using a Potter type homogenizer. The homogenate was centrifuged at 4° C., 1,000×g for 10 minutes, the obtained supernatant was further centrifuged at 4° C., 20,000×g for 20 minutes, and the pellet was suspended in an incubation buffer (20 mM Hepes buffer (pH 7.4) containing 10 mM glucose, 145 mM sodium chloride, 4.5 mM potassium Chloride, 1.2 mM magnesium chloride, 1.5 mM calcium chloride), which was used as crude synaptosome fraction.
5-HT uptake reaction was performed in a volume of 200 μl using a 96-well round bottom plate and pargyline (final concentration 10 μM) and sodium ascorbate (final concentration 0.2 mg/ml) were contained in the incubation buffer upon reaction and used.
Incubation buffer (total counting), non-labeled 5-HT (final concentration 10 μM, non-specific counting) and the diluted test compound (final concentration 300 nM) were added to each well. One-tenth quantity of the final volume of the synaptosome fraction was added and after preincubated at 37° C. for 10 minutes, tritium labeled 5-HT solution (final concentration 8 nM) was added and uptake reaction was started at 37° C. The uptake time was 10 minutes and the reaction was terminated by vacuum filtration through a 96-well fiber glass filter paper plate, and after the filter paper was washed with cold normal saline, it was dried enough and Microscint0 (Perkin-Elmer) was added to the filter and remaining radioactivity on the filter was measured.

The Ki is the equilibrium dissociation constant of an inhibitor or competing ligand from its target. Higher therefore signals lower affinity.

Where a name gives a salt, the structure may show the parent alone.

Sequence of Dopamine D2 receptor (P61169 whole entry): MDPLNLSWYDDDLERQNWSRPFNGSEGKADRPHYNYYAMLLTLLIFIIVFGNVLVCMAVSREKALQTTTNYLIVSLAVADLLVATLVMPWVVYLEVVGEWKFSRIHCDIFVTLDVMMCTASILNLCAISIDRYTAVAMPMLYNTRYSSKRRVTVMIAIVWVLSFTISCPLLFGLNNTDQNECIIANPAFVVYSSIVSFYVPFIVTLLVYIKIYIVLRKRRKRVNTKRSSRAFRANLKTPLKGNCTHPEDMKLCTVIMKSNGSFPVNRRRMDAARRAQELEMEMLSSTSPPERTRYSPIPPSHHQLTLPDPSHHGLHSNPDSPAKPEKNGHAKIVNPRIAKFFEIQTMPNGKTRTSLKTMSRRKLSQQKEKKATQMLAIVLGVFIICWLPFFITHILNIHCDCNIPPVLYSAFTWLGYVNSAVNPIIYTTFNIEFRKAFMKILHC
Sequence of Serotonin 5-HT2A receptor (P14842 whole entry): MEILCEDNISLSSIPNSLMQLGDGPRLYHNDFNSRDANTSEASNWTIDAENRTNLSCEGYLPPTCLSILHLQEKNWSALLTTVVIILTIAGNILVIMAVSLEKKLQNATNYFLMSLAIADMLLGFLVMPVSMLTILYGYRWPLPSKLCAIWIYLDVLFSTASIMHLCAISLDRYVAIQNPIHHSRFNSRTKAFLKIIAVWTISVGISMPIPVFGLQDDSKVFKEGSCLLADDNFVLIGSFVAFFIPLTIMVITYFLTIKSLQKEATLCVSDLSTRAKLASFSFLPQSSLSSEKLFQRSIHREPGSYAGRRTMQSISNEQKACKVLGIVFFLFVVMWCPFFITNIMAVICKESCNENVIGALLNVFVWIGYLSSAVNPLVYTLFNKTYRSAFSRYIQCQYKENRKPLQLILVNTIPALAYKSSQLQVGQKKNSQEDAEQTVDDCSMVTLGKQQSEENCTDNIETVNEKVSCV

As to `O=c1ccc2ccc(OCCCCN3CCN(c4cccc5sccc45)CC3)cc2[nH]1` [Example 1, 7-[4-(4-benzo[b]thiophen-4-yl-piperazin-1-yl)butoxy]-1H-quinolin-2-one], the Ki on Dopamine D2 receptor stood at 0.2 nM; in assay [1] it was 2.3 nM. Also, the inhibition at 0.3 µM on Serotonin (5-HT) uptake is 92.4%.

The compound `O=c1[nH]c2ccccc2cc1OCCN1CCN(c2cccc3sccc23)CC1` [Example 2, 3-[2-(4-benzo[b]thiophen-4-yl-piperazin-1-yl)ethoxy]-1H-quinolin-2-one] returned a Ki in assay [1] of 1.5 nM. For the same compound, the inhibition at 0.3 µM at Serotonin (5-HT) uptake turned out to be 78.8%.

Consider `Cc1cc(=O)[nH]c2cc(OCCCN3CCN(c4cccc5sccc45)CC3)ccc12` [Example 3, 7-[3-(4-benzo[b]thiophen-4-yl-piperazin-1-yl)propoxy]-4-methyl-1H-quinolin-2-one], for which the Ki on Dopamine D2 receptor was 0.5 nM; in assay [1], 2.3 nM. Besides, the inhibition at 0.3 µM at Serotonin (5-HT) uptake came out at 84.8%.

As to `Cc1cc2ccc(OCCCCN3CCN(c4cccc5sccc45)CC3)cc2[nH]c1=O` [Example 6, 7-[4-(4-benzo[b]thiophen-4-yl-piperazin-1-yl)butoxy]-3-methyl-1H-quinolin-2-one], the affinity on Dopamine D2 receptor, expressed as Ki, was 0.8 nM. Moreover, the inhibition at 0.3 µM on Serotonin (5-HT) uptake came out at 91.3%.

As to `O=C1CCc2ccc(OCCCCN3CCN(c4cccc5sccc45)CC3)cc2N1` [Example 11, 7-[4-(4-benzo[b]thiophen-4-yl-piperazin-1-yl)butoxy]-3,4-dihydro-1H-quinolin-2-one], the Ki in assay [1] came to 5.7 nM.

`O=C1CCc2ccc(OCCCCN3CCN(c4cccc5sccc45)CC3)cc2N1` [Example 12, 7-[4-(4-benzo[b]thiophen-4-yl-piperazin-1-yl)butoxy]-3,4-dihydro-1H-quinolin-2-one hydrochloride] showed a Ki in assay [1] (hydrochloride) of 2.1 nM.

In turn, `O=C1CCc2ccc(OC/C=C\CN3CCN(c4cccc5sccc45)CC3)cc2N1` [Example 13, 7-[4-(4-benzo[b]thiophen-4-yl-piperazin-1-yl)-(Z)-2-butenyloxy]-3,4-dihydro-1H-quinolin-2-one] came in with a Ki at Dopamine D2 receptor of 2.4 nM. In addition, on Serotonin (5-HT) uptake, the inhibition at 0.3 µM was 77%.

`O=C1CCc2ccccc2N1CCCCCN1CCN(c2cccc3sccc23)CC1` [Example 22, 1-[5-(4-benzo[b]thiophen-4-yl-piperazin-1-yl)pentyl]-3,4-dihydro-1H-quinolin-2-one hydrochloride] showed a Ki on Dopamine D2 receptor of 4 nM. That is a single-digit nanomolar value.

Take `O=C1NCCc2cc(OCCCN3CCN(c4cccc5sccc45)CC3)ccc21` [Example 25, 6-[3-(4-benzo[b]thiophen-4-yl-piperazin-1-yl)propoxy]-3,4-dihydro-2H-isoquinolin-1-one]: in assay [1], the Ki came out at 4.6 nM. Further, the inhibition at 0.3 µM at Serotonin (5-HT) uptake is 91.9%.

`O=C1NCCc2ccc(OCCCN3CCN(c4cccc5sccc45)CC3)cc21` [Example 28, 7-[3-(4-benzo[b]thiophen-4-yl-piperazin-1-yl)propoxy]-3,4-dihydro-2H-isoquinolin-1-one] gave an inhibition constant Ki at Dopamine D2 receptor of 1.2 nM.

`CCN1CCc2ccc(OCCCN3CCN(c4cccc5sccc45)CC3)cc2C1=O` [Example 31, 7-[3-(4-benzo[b]thiophen-4-yl-piperazin-1-yl)propoxy]-2-ethyl-3,4-dihydro-2H-isoquinolin-1-one dihydrochloride] returned a Ki on Dopamine D2 receptor of 1.4 nM.

At Dopamine D2 receptor, `CN1CCc2ccc(OCCCCN3CCN(c4cccc5sccc45)CC3)cc2C1=O` [Example 32, 7-[4-(4-benzo[b]thiophen-4-yl-piperazin-1-yl)butoxy]-2-methyl-3,4-dihydro-2H-isoquinolin-1-one hydrochloride] registered a Ki of 1.5 nM.

Take `O=c1[nH]ccc2ccc(OCCCN3CCN(c4cccc5sccc45)CC3)cc12` [Example 35, 7-[3-(4-benzo[b]thiophen-4-yl-piperazin-1-yl)propoxy]-2H-isoquinolin-1-one]: affinity on Dopamine D2 receptor was put at a Ki of 1.6 nM.

As to `Cn1ccc2ccc(OCCCN3CCN(c4cccc5sccc45)CC3)cc2c1=O` [Example 36, 7-[3-(4-benzo[b]thiophen-4-yl-piperazin-1-yl)propoxy]-2-methyl-2H-isoquinolin-1-one hydrochloride], the Ki in assay [1] stood at 2.1 nM.

Compound `COc1ccc2ccn(CCCCN3CCN(c4cccc5sccc45)CC3)c(=O)c2c1` [Example 38, 2-[4-(4-benzo[b]thiophen-4-yl-piperazin-1-yl)butyl]-7-methoxy-2H-isoquinolin-1-one hydrochloride] returned a Ki in assay [1] of 7.3 nM.

Regarding `O=c1c2cc(O)ccc2ccn1CCCCN1CCN(c2cccc3sccc23)CC1` [Example 39, 2-[4-(4-benzo[b]thiophen-4-yl-piperazin-1-yl)butyl]-7-hydroxy-2H-isoquinolin-1-one hydrobromide], the Ki at Dopamine D2 receptor was found to be 1.2 nM.

For the compound `O=C1CCc2cc(OCCCN3CCN(c4cccc5sccc45)CC3)cc(F)c2N1` [Example 116], the Ki at Dopamine D2 receptor stood at 4.5 nM; in assay [1], 4.2 nM.

Turning to `Cc1cccc2cc(OCCCN3CCN(c4cccc5sccc45)CC3)c(=O)[nH]c12` [Example 117], the Ki on Dopamine D2 receptor stood at 4.7 nM.

Take `O=c1ccc2cc(OCCCN3CCN(c4cccc5sccc45)CC3)cc(F)c2[nH]1` [Example 118]: the figures for the Ki (on Dopamine D2 receptor; in assay [1]) were 3.5 nM and 3.4 nM, respectively.

As for `O=C1CCc2c(cccc2OCCCN2CCN(c3cccc4sccc34)CC2)N1` [Example 122], the results for the Ki (on Dopamine D2 receptor; in assay [1]) were 3.3 nM and 2.9 nM, respectively.

As to `O=C1CCc2cc(CO)c(OCCCN3CCN(c4cccc5sccc45)CC3)cc2N1` [Example 139], the Ki on Dopamine D2 receptor amounted to 0.2 nM.

As for `CC(=O)Nc1ccc(OCCCN2CCN(c3cccc4sccc34)CC2)c2c1NC(=O)CC2` [Example 155], the Ki came out at 2.3 nM on Dopamine D2 receptor and 3 nM in assay [1].

With `O=c1ccc2cc(OCCCCN3CCN(c4cccc5sccc45)CC3)cc(F)c2[nH]1` [Example 184], the Ki was found to be 2.6 nM at Dopamine D2 receptor and 4.3 nM in assay [1].

Turning to `Cc1cc(=O)[nH]c2ccc(OCCCCN3CCN(c4cccc5sccc45)CC3)cc12` [Example 185], the Ki on Dopamine D2 receptor came to 2.7 nM; in assay [1] it was 5 nM.

Take `O=C1CCc2cccc(OCCCCN3CCN(c4cccc5sccc45)CC3)c2N1` [Example 186]: the figures for the Ki (on Dopamine D2 receptor; in assay [1]) were 2.3 nM and 8.8 nM, respectively.

For `O=c1ccc2cccc(OCCCCN3CCN(c4cccc5sccc45)CC3)c2[nH]1` [Example 188], the Ki worked out at 1.6 nM on Dopamine D2 receptor and 6.3 nM in assay [1].

Consider `O=C1CCc2c(O)ccc(OCCCN3CCN(c4cccc5sccc45)CC3)c2N1` [Example 190], for which the affinity at Dopamine D2 receptor, expressed as Ki, was 0.8 nM.
